Patent US20230089073A1 (Carmot Therapeutics, Inc., priority 2021, published 2023)

Target: T1, human GLP-1 receptor (Homo sapiens, UniProt P43220)
T1 construct: expressed in transfected cells
Assay: GLP-1R cAMP Assay
Format: cell-based
Details: cAMP accumulation in CHO cells stably overexpressing the human GLP-1 receptor; 30 min treatment; HitHunter cAMP kit; read-out: EC50
In short: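 CHO cells stably overexpressing human GLP-1R, 10,000 cells/well, treated with compound in 20-point dose response in triplicate for 30 min. cAMP accumulation read by enzyme-complementation luminescence after lysis and overnight incubation; dose-response curves fitted.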

T1 sequence (P43220 24-463): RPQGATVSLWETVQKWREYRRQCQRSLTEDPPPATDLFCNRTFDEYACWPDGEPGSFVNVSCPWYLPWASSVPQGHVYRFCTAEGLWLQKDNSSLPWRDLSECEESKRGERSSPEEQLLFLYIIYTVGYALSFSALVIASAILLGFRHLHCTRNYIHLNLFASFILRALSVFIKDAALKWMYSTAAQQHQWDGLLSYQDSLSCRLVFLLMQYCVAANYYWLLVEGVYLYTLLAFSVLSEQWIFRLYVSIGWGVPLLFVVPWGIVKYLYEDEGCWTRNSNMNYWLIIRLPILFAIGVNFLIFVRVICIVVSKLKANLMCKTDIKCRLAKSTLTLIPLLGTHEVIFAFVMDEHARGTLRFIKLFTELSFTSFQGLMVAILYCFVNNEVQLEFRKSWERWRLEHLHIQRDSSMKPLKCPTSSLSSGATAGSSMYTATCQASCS

| EC50 | SMILES |
| --- | --- |
| < 50 nM | CCn1cncc1Cn1c(CN2CCC(Oc3cccc(COc4ccc(Cl)cc4C#N)n3)CC2)nc2ccc(C(=O)O)cc21 [Compound 246, 2-{[4-({6-[(4-chloro-2-cyanophenoxy)methyl]pyridin-2-yl}oxy)piperidin-1-yl]methyl}-1-[(1-ethyl-1H-imidazol-5-yl)methyl]-1H-1,3-benzodiazole-6-carboxylic acid] |
| < 50 nM | CCn1cncc1Cn1c(CN2CCC(Oc3cccc(COc4ccc(Cl)cc4F)n3)CC2)nc2ccc(C(=O)O)cc21 [Compound 247, 2-{[4-({6-[(4-chloro-2-fluorophenoxy)methyl]pyridin-2-yl}oxy)piperidin-1-yl]methyl}-1-[(1-ethyl-1H-imidazol-5-yl)methyl]-1H-1,3-benzodiazole-6-carboxylic acid] |
| < 50 nM | O=C(O)c1ccc2nc(CN3CCC(Oc4ccnc(COc5ccc(Cl)cc5F)c4)CC3)n(C[C@@H]3CCO3)c2c1 [Compound 250, 2-{[4-({2-[(4-chloro-2-fluorophenoxy)methyl]pyridin-4-yl}oxy)piperidin-1-yl]methyl}-1-{[(2S)-oxetan-2-yl]methyl}-1H-1,3-benzodiazole-6-carboxylic acid] |
| < 50 nM | Cn1cncc1Cn1c(CN2CCC(Oc3cccc(COc4ccc(Cl)cc4Cl)c3)CC2)nc2ccc(C(=O)O)cc21 [Compound 255, 2-[(4-{3-[(2,4-dichlorophenoxy)methyl]phenoxy}piperidin-1-yl)methyl]-1-[(1-methyl-1H-imidazol-5-yl)methyl]-1H-1,3-benzodiazole-6-carboxylic acid] |
| < 50 nM | O=C(O)c1ccc2nc(CN3CCC(Oc4ccnc(COc5ccc(Cl)cc5Cl)c4)CC3)n(Cc3ccno3)c2c1 [Compound 257, 2-{[4-({2-[(2,4-dichlorophenoxy)methyl]pyridin-4-yl}oxy)piperidin-1-yl]methyl}-1-[(1,2-oxazol-5-yl)methyl]-1H-1,3-benzodiazole-6-carboxylic acid] |
| < 50 nM | O=C(O)c1ccc2nc(CN3CCC(Oc4ccnc(COc5ccc(Cl)cc5F)c4)CC3)n(Cc3ncco3)c2c1 [Compound 258, 2-{[4-({2-[(4-chloro-2-fluorophenoxy)methyl]pyridin-4-yl}oxy)piperidin-1-yl]methyl}-1-[(1,3-oxazol-2-yl)methyl]-1H-1,3-benzodiazole-6-carboxylic acid] |
| < 50 nM | Cn1cncc1Cn1c(CN2CCC(Oc3ccnc(COc4ccc(Cl)cc4C#N)c3)CC2)nc2ccc(C(=O)O)cc21 [Compound 259, 2-{[4-({2-[(4-chloro-2-cyanophenoxy)methyl]pyridin-4-yl}oxy)piperidin-1-yl]methyl}-1-[(1-methyl-1H-imidazol-5-yl)methyl]-1H-1,3-benzodiazole-6-carboxylic acid] |
| < 50 nM | Cn1cncc1Cn1c(CN2CCC(Oc3cccc(COc4ccc(Cl)cc4F)n3)CC2)nc2ccc(C(=O)O)cc21 [Compound 264, 2-{[4-({6-[(4-chloro-2-fluorophenoxy)methyl]pyridin-2-yl}oxy)piperidin-1-yl]methyl}-1-[(1-methyl-1H-imidazol-5-yl)methyl]-1H-1,3-benzodiazole-6-carboxylic acid] |
| < 50 nM | O=C(O)c1ccc2nc(CN3CCC(Oc4ccnc(COc5ccc(Cl)cc5F)c4)CC3)n(Cc3cnco3)c2c1 [Compound 265, 2-{[4-({2-[(4-chloro-2-fluorophenoxy)methyl]pyridin-4-yl}oxy)piperidin-1-yl]methyl}-1-[(1,3-oxazol-5-yl)methyl]-1H-1,3-benzodiazole-6-carboxylic acid] |
| < 50 nM | O=C(O)c1ccc2nc(CN3CCC(Oc4ccnc(COc5ccc(Cl)cc5F)c4)CC3)n(Cc3ccno3)c2c1 [Compound 266, 2-{[4-({2-[(4-chloro-2-fluorophenoxy)methyl]pyridin-4-yl}oxy)piperidin-1-yl]methyl}-1-[(1,2-oxazol-5-yl)methyl]-1H-1,3-benzodiazole-6-carboxylic acid] |
| < 50 nM | Cn1cncc1Cn1c(CN2CCC(Oc3ccnc(COc4ccc(Cl)cc4F)c3)CC2)nc2ccc(C(=O)O)cc21 [Compound 267, 2-{[4-({2-[(4-chloro-2-fluorophenoxy)methyl]pyridin-4-yl}oxy)piperidin-1-yl]methyl}-1-[(1-methyl-1H-imidazol-5-yl)methyl]-1H-1,3-benzodiazole-6-carboxylic acid] |
| < 50 nM | O=C(O)c1ccc2nc(CN3CCC(Oc4cccc(COc5ccc(Cl)cc5F)n4)CC3)n(Cc3ncco3)c2c1 [Compound 268, 2-{[4-({6-[(4-chloro-2-fluorophenoxy)methyl]pyridin-2-yl}oxy)piperidin-1-yl]methyl}-1-[(1,3-oxazol-2-yl)methyl]-1H-1,3-benzodiazole-6-carboxylic acid] |
| 50 to 500 nM | CCn1cncc1Cn1c(CN2CCC(Oc3ccccc3COc3ccc(Cl)cc3Cl)CC2)nc2ccc(C(=O)O)cc21 [Compound 272, 2-[(4-{2-[(2,4-dichlorophenoxy)methyl]phenoxy}piperidin-1-yl)methyl]-1-[(1-ethyl-1H-imidazol-5-yl)methyl]-1H-1,3-benzodiazole-6-carboxylic acid] |
| < 50 nM | CCn1cncc1Cn1c(CN2CCC(Oc3ccnc(COc4ccc(C#N)cc4F)c3)CC2)nc2ccc(C(=O)O)cc21 [Compound 275, 2-{[4-({2-[(4-cyano-2-fluorophenoxy)methyl]pyridin-4-yl}oxy)piperidin-1-yl]methyl}-1-[(1-ethyl-1H-imidazol-5-yl)methyl]-1H-1,3-benzodiazole-6-carboxylic acid] |
| < 50 nM | N#Cc1ccc(OCc2cc(OC3CCN(Cc4nc5ccc(C(=O)O)cc5n4C[C@@H]4CCO4)CC3)ccn2)c(F)c1 [Compound 277, 2-{[4-({2-[(4-cyano-2-fluorophenoxy)methyl]pyridin-4-yl}oxy)piperidin-1-yl]methyl}-1-{[(2S)-oxetan-2-yl]methyl}-1H-1,3-benzodiazole-6-carboxylic acid] |

The remaining lines, values behind:

| SMILES | EC50 |
| --- | --- |
| O=C(O)c1ccc2nc(CN3CCC(Oc4cccc(COc5cccc(Cl)c5Cl)c4)CC3)n(C[C@@H]3CCO3)c2c1 [Compound 243, 2-[(4-{3-[(2,3-dichlorophenoxy)methyl]phenoxy}piperidin-1-yl)methyl]-1-{[(2S)-oxetan-2-yl]methyl}-1H-1,3-benzodiazole-6-carboxylic acid] | < 50 nM |
| N#Cc1cc(Cl)ccc1OCc1cccc(OC2CCN(Cc3nc4ccc(C(=O)O)cc4n3C[C@@H]3CCO3)CC2)n1 [Compound 248, 2-{[4-({6-[(4-chloro-2-cyanophenoxy)methyl]pyridin-2-yl}oxy)piperidin-1-yl]methyl}-1-{[(2S)-oxetan-2-yl]methyl}-1H-1,3-benzodiazole-6-carboxylic acid] | 50 to 500 nM |
| O=C(O)c1ccc2nc(CN3CCC(Oc4cccc(COc5ccc(Cl)cc5F)n4)CC3)n(C[C@@H]3CCO3)c2c1 [Compound 249, 2-{[4-({6-[(4-chloro-2-fluorophenoxy)methyl]pyridin-2-yl}oxy)piperidin-1-yl]methyl}-1-{[(2S)-oxetan-2-yl]methyl}-1H-1,3-benzodiazole-6-carboxylic acid] | < 50 nM |
| N#Cc1cc(Cl)ccc1OCc1cccc(OC2CCN(Cc3nc4ccc(C(=O)O)cc4n3Cc3ncco3)CC2)n1 [Compound 251, 2-{[4-({6-[(4-chloro-cyanophenoxy)methyl]pyridin-2-yl}oxy)piperidin-1-yl]methyl}-1-[(1,3-oxazol-2-yl)methyl]-1H-1,3-benzodiazole-6-carboxylic acid] | > 500 nM |
| N#Cc1cc(Cl)ccc1OCc1cccc(OC2CCN(Cc3nc4ccc(C(=O)O)cc4n3Cc3cnco3)CC2)n1 [Compound 252, 2-{[4-({6-[(4-chloro-2-cyanophenoxy)methyl]pyridin-2-yl}oxy)piperidin-1-yl]methyl}-1-[(1,3-oxazol-5-yl)methyl]-1H-1,3-benzodiazole-6-carboxylic acid] | > 500 nM |
| N#Cc1cc(Cl)ccc1OCc1cccc(OC2CCN(Cc3nc4ccc(C(=O)O)cc4n3Cc3ccno3)CC2)n1 [Compound 253, 2-{[4-({6-[(4-chloro-2-cyanophenoxy)methyl]pyridin-2-yl}oxy)piperidin-1-yl]methyl}-1-[(1,2-oxazol-5-yl)methyl]-1H-1,3-benzodiazole-6-carboxylic acid] | > 500 nM |
| C[C@H]1C[C@H](Oc2cccc(COc3ccc(Cl)cc3Cl)c2)CCN1Cc1nc2ccc(C(=O)O)cc2n1C[C@@H]1CCO1 [Compound 254, 2-{[(2S,4R)-4-{3-[(2,4-dichlorophenoxy)methyl]phenoxy}-2-methylpiperidin-1-yl]methyl}-1-{[(2S)-oxetan-2-yl]methyl}-1H-1,3-benzodiazole-6-carboxylic acid] | < 50 nM |
| CCn1cncc1Cn1c(CN2CCN(C(=O)c3cnc(COc4ccc(Cl)cc4Cl)o3)C[C@@H]2C)nc2ccc(C(=O)O)cc21 [Compound 256, 2-{[(2S)-4-{2-[(2,4-dichlorophenoxy)methyl]-1,3-oxazole-5-carbonyl}-2-methylpiperazin-1-yl]methyl}-1-[(1-ethyl-1H-imidazol-5-yl)methyl]-1H-1,3-benzodiazole-6-carboxylic acid] | < 50 nM |
| O=C(O)c1ccc2nc(CN3CCC(Oc4cccc(COc5ccc(Cl)cc5F)n4)CC3)n(Cc3cnco3)c2c1 [Compound 269, 2-{[4-({6-[(4-chloro-2-fluorophenoxy)methyl]pyridin-2-yl}oxy)piperidin-1-yl]methyl}-1-[(1,3-oxazol-5-yl)methyl]-1H-1,3-benzodiazole-6-carboxylic acid] | < 50 nM |
| O=C(O)c1ccc2nc(CN3CCC(Oc4cccc(COc5ccc(Cl)cc5F)n4)CC3)n(Cc3ccno3)c2c1 [Compound 270, 2-{[4-({6-[(4-chloro-2-fluorophenoxy)methyl]pyridin-2-yl}oxy)piperidin-1-yl]methyl}-1-[(1,2-oxazol-5-yl)methyl]-1H-1,3-benzodiazole-6-carboxylic acid] | < 50 nM |
| CCn1cncc1Cn1c(CN2CC[C@@H](Cc3cnc(COc4ccc(Cl)cc4Cl)o3)C[C@@H]2C)nc2ccc(C(=O)O)cc21 [Compound 278, 2-{[(2S,4R)-4-({2-[(2,4-dichlorophenoxy)methyl]-1,3-oxazol-5-yl}methyl)-2-methylpiperidin-1-yl]methyl}-1-[(1-ethyl-1H-imidazol-5-yl)methyl]-1H-1,3-benzodiazole-6-carboxylic acid] | < 50 nM |
